{
  "source": "patent US11261184B2",
  "about": "“[1,6]naphthyridine compounds and derivatives as CDK8/CDK19 inhibitors” (Boehringer Ingelheim International GmbH, priority 2017, dated 2022)",
  "key": {"CDK8/cyclin C": {"target": "CDK8/cyclin C (Homo sapiens (Human), UniProt P49336)", "sequence (P49336 whole entry)": "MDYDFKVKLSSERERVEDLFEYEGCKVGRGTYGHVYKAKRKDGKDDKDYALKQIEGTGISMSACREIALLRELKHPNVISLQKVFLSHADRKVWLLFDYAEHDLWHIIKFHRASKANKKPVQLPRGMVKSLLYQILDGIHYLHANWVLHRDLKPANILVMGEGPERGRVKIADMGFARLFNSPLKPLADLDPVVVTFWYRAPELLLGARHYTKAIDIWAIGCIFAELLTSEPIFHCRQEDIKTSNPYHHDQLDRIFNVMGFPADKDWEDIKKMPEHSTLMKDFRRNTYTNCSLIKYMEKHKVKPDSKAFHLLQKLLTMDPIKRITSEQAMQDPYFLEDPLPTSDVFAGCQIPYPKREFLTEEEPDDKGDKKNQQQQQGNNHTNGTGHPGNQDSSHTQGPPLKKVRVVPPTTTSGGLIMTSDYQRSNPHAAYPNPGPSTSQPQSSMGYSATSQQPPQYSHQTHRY", "sequence (P24863 whole entry partner)": "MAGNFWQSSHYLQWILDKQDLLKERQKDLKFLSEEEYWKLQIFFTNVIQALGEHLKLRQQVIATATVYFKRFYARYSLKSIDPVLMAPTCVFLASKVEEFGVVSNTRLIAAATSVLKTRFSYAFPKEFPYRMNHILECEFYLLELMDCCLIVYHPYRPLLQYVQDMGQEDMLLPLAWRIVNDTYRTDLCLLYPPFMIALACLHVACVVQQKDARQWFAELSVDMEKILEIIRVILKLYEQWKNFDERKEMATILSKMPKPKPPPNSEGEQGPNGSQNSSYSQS", "experiment": "CDK8 biochemical assay (TR-FRET Kinase Tracer 236 displacement)", "format": "binding", "conditions": "5 nM CDK8/cyclin C, 10 nM Kinase Tracer 236, 60 min", "method": "This assay is used to identify compounds which competitively interact with the binding pocket of the CDK8 kinase.\nAssay-ready plates (ARPs; Proxiplate-384 PLUS, white, PerkinElmer) with compound solution in 100% DMSO are generated on an Access Labcyte Workstation with the Labcyte Echo 55x. 150 nL of compound solution are transferred per well in 11 concentrations in duplicates with serial 1:5 dilutions. The final DMSO concentration in the assay is 1%.\n5 nM (final assay concentration) CDK8/cyclin C, 2 nM (final assay concentration) Biotin anti-His Tag Antibody and 2 nM (final assay concentration) LanthaScreen Eu-Streptavidin are mixed in assay buffer (50 mM HEPES pH 7.3, 10 mM MgCl2, 1 mM EGTA, 0.01% Brij-35, 0.05% BSA, 1 mM DTT) prior to use and kept at room temperature.\nThe assay runs on a fully automated robotic system. 10 μL of CDK8/cyclin C, Biotin anti-His Tag Antibody and LanthaScreen Eu-Streptavidin mix are dispensed into columns 1-24. 5 μL of 10 nM (final assay concentration) Kinase Tracer 236 solution in assay buffer are added to columns 1-23, 5 μL of assay buffer into column 24. Plates are kept at room temperature in a darkened incubator. After 60 min incubation time the signal is measured in a PerkinElmer Envision HTS Multilabel Reader using the TR-FRET specs from PerkinElmer.\nEach plate contains 16 wells of a negative control (diluted DMSO instead of test compound; CDK8/cyclin C, Biotin anti-His Tag Antibody and LanthaScreen Eu-Streptavidin mix w Kinase Tracer 236; column 23) and 16 wells of a positive control (diluted DMSO instead of test compound; CDK8/cyclin C, Biotin anti-His Tag Antibody and LanthaScreen Eu-Streptavidin mix w/o Kinase Tracer 236; column 24). A known inhibitor of CDK8/cyclin C binding is used as internal control. IC50 values are calculated and analyzed in the MEGALAB IC50 application using a 4 parametric logistic model.\nTable 4 includes IC50 values of example compounds determined using the above assay."}, "[1]": {"experiment": "Metabolic (microsomal) stability assay, mouse liver microsomes", "format": "in vitro ADME", "conditions": "predicted clearance as percent of liver blood flow; mouse liver microsomes 0.5 mg/mL, 1 μM compound, 37° C.", "method": "(§1) Metabolic (Microsomal) Stability Assay\n(§2) The metabolic degradation of the test compound is assayed at 37° C. with pooled liver microsomes (mouse (MLM), rat (RLM) or human (HLM)). The final incubation volume of 74 μL per time point contains TRIS buffer (pH 7.5; 0.1 M), magnesium chloride (6.5 mM), microsomal protein (0.5 mg/mL for mouse/rat, 1 mg/mL for human specimens) and the test compound at a final concentration of 1 μM. Following a short preincubation period at 37° C., the reactions are initiated by addition of 8 μL beta-nicotinamide adenine dinucleotide phosphate, reduced form (NADPH, 10 mM) and terminated by transferring an aliquot into solvent after different time points. Additionally, the NADPH-independent degradation is monitored in incubations without NADPH, terminated at the last time point by addition of acetonitril. The quenched incubations are pelleted by centrifugation (1811 g, 5 min). An aliquot of the supernatant is assayed by LC-MS/MS for the amount of parent compound.\n(§3) In vitro intrinsic clearance (CLint,in vitro) is calculated from the time course of the disappearance of the test drug during the microsomal incubation. Each plot is fitted to the first-order elimination rate constant as C(t)=C0*exp(−ke*t), where C(t) and C0 are the concentration of unchanged test drug at incubation time t and that at preincubation and ke is the disappearance rate constant of the unchanged drug. Subsequently, CLint,in vitro (μL·min^−1·amount protein) values are converted to CLint,in vitro (mL·min^−1·kg^−1) for the whole body. CLint,in vitro data are scaled up using physiological parameters. For better across species comparison the predicted clearance is expressed as percent of the liver blood flow [% QH] in the individual species. In general high stability (corresponding to low % QH) of the compounds across species is desired."}, "[2]": {"experiment": "Metabolic (microsomal) stability assay, rat liver microsomes", "format": "in vitro ADME", "conditions": "predicted clearance as percent of liver blood flow; rat liver microsomes 0.5 mg/mL, 1 μM compound, 37° C.", "method": "as §1, §2, §3"}, "[3]": {"experiment": "Metabolic (microsomal) stability assay, human liver microsomes", "format": "in vitro ADME", "conditions": "predicted clearance as percent of liver blood flow; human liver microsomes 1 mg/mL, 1 μM compound, 37° C.", "method": "as §1, §2, §3"}},
  "data": [
    {"smiles": "CN(C)C(=O)Cn1cc(-c2ccc(Oc3ccnc4c(F)cncc34)cc2)cn1", "note": "[I-039, 2-{4-[4-(8-fluoro-[1,6]naphthyridin-4-yloxy)-phenyl]-pyrazol-1-yl}-N,N-dimethyl-acetamide]", "values": [
      {"measurement": "IC50", "setting": "CDK8/cyclin C", "value": 2.5, "unit": "nM"},
      {"measurement": "MLM [% QH]", "setting": "[1]", "value": 26, "unit": "% QH"},
      {"measurement": "RLM [% QH]", "setting": "[2]", "value": "<24", "unit": "% QH"},
      {"measurement": "HLM [% QH]", "setting": "[3]", "value": "<24", "unit": "% QH"}
    ]},
    {"smiles": "CN(C)C(=O)Cn1cc(-c2ccc(Oc3ccnc4ccncc34)cc2)cn1", "note": "[I-040]", "values": [
      {"measurement": "IC50", "setting": "CDK8/cyclin C", "value": 2.6, "unit": "nM"},
      {"measurement": "MLM [% QH]", "setting": "[1]", "value": 45, "unit": "% QH"},
      {"measurement": "RLM [% QH]", "setting": "[2]", "value": 32, "unit": "% QH"},
      {"measurement": "HLM [% QH]", "setting": "[3]", "value": 27, "unit": "% QH"}
    ]},
    {"smiles": "CN(C)C(=O)Cn1cc(-c2ccc(Oc3ccnc4c(Cl)cncc34)cc2)cn1", "note": "[I-043]", "values": [
      {"measurement": "IC50", "setting": "CDK8/cyclin C", "value": 2.7, "unit": "nM"},
      {"measurement": "MLM [% QH]", "setting": "[1]", "value": 25, "unit": "% QH"},
      {"measurement": "RLM [% QH]", "setting": "[2]", "value": 42, "unit": "% QH"},
      {"measurement": "HLM [% QH]", "setting": "[3]", "value": "<24", "unit": "% QH"}
    ]}
  ]
}
